Read-outs that look alike come from different tables or passages of the source.
Experiments:
[1] = molecular target: T1, CIB1 and αIIb interaction (CIB1-GST : F-αIIb peptide) (Homo sapiens, UniProt Q99828); assay: FP assay, 1536-well qHTS format (primary and confirmatory screen); type: binding; conditions: for Curve Class (confirmatory screen) / CONFIRMATORY SCREEN Curve Class: qHTS curve class
T1 construct: made in house; host or cells: BL-21 plus RIL cells (E. coli)
T1 sequence (Q99828 1-191): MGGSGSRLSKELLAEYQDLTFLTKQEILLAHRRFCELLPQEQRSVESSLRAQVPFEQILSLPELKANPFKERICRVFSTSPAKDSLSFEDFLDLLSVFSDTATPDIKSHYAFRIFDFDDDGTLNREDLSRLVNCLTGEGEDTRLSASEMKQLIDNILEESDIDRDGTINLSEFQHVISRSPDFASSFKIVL

[2] = molecular target: T2, GST-CIB1 : F-scrambled peptide (Homo sapiens, UniProt Q99828); assay: FP scrambled-peptide counter screen, 1536-well format; type: binding; conditions: for Curve Class (counterscreen) / COUNTERSCREEN Curve Class: qHTS curve class; for IC50: read-out: IC50 [μM] (counterscreen)
T2 construct: made in house; host or cells: BL-21 plus RIL cells (E. coli)
T2 sequence (Q99828 1-191): T1 sequence (Q99828 1-191)

[3] = confirmatory screen, negative sign = inhibitory curve
[4] = confirmatory screen, read-out: IC50 [μM] (confirmatory screen)
[5] = qHTS FP screen hits, Table S2, negative = inhibition
[6] = qHTS FP screen hits, Table S2, one class per curve where COUNT > 1, negative sign = inhibitory curve
[7] = qHTS FP screen hits, Table S2, read-out: IC50
[8] = counterscreen, negative sign = inhibitory curve
[9] = Table S3, confirmatory screen, a negative sign marks inhibitory curves
[10] = Table S3, confirmatory screen, negative = inhibition
[11] = Table S3, counterscreen, negative = inhibition
[12] = qHTS primary screen hits, Table S2, negative = inhibition
[13] = qHTS primary screen hits, Table S2, negative sign = inhibitory curve, several classes where COUNT > 1
[14] = qHTS primary screen hits, Table S2, read-out: IC50
[15] = Table S3, confirmatory screen, YES/NO call
[16] = Table S3, counterscreen, a negative sign marks inhibitory curves
[17] = Table S3, counterscreen, YES/NO call
[18] = Table S3, confirmatory screen, read-out: IC50 [μM] (confirmatory screen)
[19] = qHTS primary screen hits, Table S2, negative sign = inhibitory curve

| Compound | Efficacy (%) (confirmatory screen) ([1]; confirmatory screen) | Confirm? (confirmatory screen) ([1]; confirmatory screen, YES/NO) | Curve Class (confirmatory screen) [1, 3] | IC50 [1, 4] | Efficacy (%) [1, 5] | IC50 [1, 7] | Efficacy (%) (counterscreen) ([2]; counterscreen) | Curve Class (counterscreen) [2, 8] | Curve Class (confirmatory screen) [1, 9] | Efficacy (%) (confirmatory screen) [1, 10] | Efficacy (%) (counterscreen) [2, 11] | IC50 ([2]; Table S3, counterscreen) | Efficacy (%) [1, 12] | Curve Class [1, 13] | IC50 [1, 14] | Curve Class (counterscreen) [2, 16] | also measured |
| --- | --- | --- | --- | --- | --- | --- | --- | --- | --- | --- | --- | --- | --- | --- | --- | --- | --- |
| COc1nc2ccc(Br)cc2cc1[C@@H](c1ccccc1)[C@@](O)(CCN(C)C)c1cccc2ccccc12 [NCGC00348215-04] | -94% | YES | -2.2 | 89.1 µM | -64% | 50.1 µM | -83% | -2.2 | – | – | – | – | – | – | – | – | Curve Class [1, 6]: -2.2; IC50 ([2]; counterscreen): 89.1 µM |
| O=C(Nc1ccc(S(=O)(=O)N2CCOCC2)cc1)c1cc(Cl)ccc1NS(=O)(=O)c1ccc(Cl)s1.O=C(O)C(F)(F)F [NCGC00249417-01] | – | – | – | – | – | – | – | – | 4 | -31% | 163% | 79.4 µM | – | – | – | – | – |
| O=C(O)C(F)(F)F.c1ccc(-n2ccc(-c3nnc4n3CCCCC4)c2)cc1 [NCGC00249645-01] | -104% | YES | -2.1 | 50.1 µM | -91% | 79.4 µM | -62% | -3 | – | – | – | – | – | – | – | – | Curve Class [1, 6]: -2.2; IC50 ([2]; counterscreen): 89.1 µM |
| CC(OC(=O)c1ccc(S(C)(=O)=O)c([N+](=O)[O-])c1)C(=O)NC1C2CC3CC(C2)CC1C3 (stereo not shown) [NCGC00188535-01] | – | – | – | – | – | – | – | – | – | – | – | – | -30% | -1.2 | 1.8 µM | – | CONFIRMATORY SCREEN Efficacy (%) ([1]; confirmatory screen): -32%; CONFIRMATORY SCREEN Curve Class ([1]; confirmatory screen): 4; COUNTERSCREEN Efficacy (%) ([2]; counterscreen): -20%; COUNTERSCREEN Curve Class ([2]; counterscreen): 4 |
| CCN1CCN(c2cccc(Nc3nn4c(=O)c5ccccc5nc4s3)c2)CC1.Cl [NCGC00187806-01] | -38% | YES | -2.4 | 44.7 µM | – | – | -58% | -3 | – | – | – | – | -24% | -2.4 | 35.5 µM | – | IC50 ([2]; counterscreen): 89.1 µM |
| CCN(CC)CCN(Cc1ccc(-c2ccc(C(F)(F)F)cc2)cc1)C(=O)Cn1c(SCc2ccc(F)cc2)nc(=O)c2c1CCC2 [NCGC00386337-05] | -65% | YES | -1.2 | 35.5 µM | -54% | 56.2 µM | -46% | -2.2 | – | – | – | – | – | – | – | – | Curve Class [1, 6]: -2.2; IC50 ([2]; counterscreen): 31.6 µM |
| NS(=O)(=O)c1ccc(Nc2nc(-c3ccccc3)cs2)cc1.O=C(O)C(F)(F)F [NCGC00262411-01] | – | – | – | – | – | – | – | – | -2.2 | -84% | -98% | 44.7 µM | -58% | -2.2 | 50.1 µM | -2.1 | Confirm? (confirmatory screen) [1, 15]: YES |
| O=C(O)C(F)(F)F.O=C1Nc2ccccc2/C1=N/NC(=S)Nc1cccnc1 [NCGC00242647-01] | – | – | – | – | – | – | – | – | – | – | – | – | -32% | -1.4 | 17.8 µM | – | CONFIRMATORY SCREEN Efficacy (%) ([1]; confirmatory screen): -44%; CONFIRMATORY SCREEN Curve Class ([1]; confirmatory screen): 4; COUNTERSCREEN Efficacy (%) ([2]; counterscreen): -17%; COUNTERSCREEN Curve Class ([2]; counterscreen): 4 |
| CC(C)c1ccc(NC(=S)N/N=C2\C(=O)Nc3ccccc32)cc1.O=C(O)C(F)(F)F [NCGC00242646-01] | – | – | – | – | – | – | – | – | 4 | -28% | -36% | 12.6 µM | -16% | -1.4 | 10 µM | -1.2 | Confirm? (counterscreen) [2, 17]: YES |
| C=C1C(=O)OC2C(OC(=O)C=C(C)C)C(C)=C3C(=O)C=C(C)C3C(O)C12 (stereo not shown) [NCGC00380563-01] | – | – | – | – | -32% | 2.5 µM | – | – | -1.2 | -43% | -47% | 2.2 µM | – | – | – | -1.2 | Confirm? (confirmatory screen) [1, 15]: YES; IC50 [1, 18]: 2 µM; Curve Class [1, 6]: -1.2 |
| O=C(O)C(F)(F)F.O=C1CCCC2=C1C(c1n[nH]cc1Cl)NC(Nc1nc3ccccc3o1)=N2 (stereo not shown) [NCGC00238624-04] | – | – | – | – | – | – | – | – | -1.2 | -34% | -54% | 35.5 µM | – | – | – | -1.2 | Confirm? (confirmatory screen) [1, 15]: YES; IC50 [1, 18]: 25.1 µM |
| CCC(C)Cn1c(O)cc2nn(-c3nc4ccccc4s3)c(=O)c-2c1C.O=C(O)C(F)(F)F (stereo not shown) [NCGC00386995-01] | – | – | – | – | – | – | – | – | -1.4 | -40% | -51% | 11.2 µM | – | – | – | -1.2 | Confirm? (confirmatory screen) [1, 15]: YES; IC50 [1, 18]: 35.5 µM |
| O=C(Cc1ccc(Cl)c(Cl)c1)Nc1ccc(S(=O)(=O)Nc2cnccn2)cc1.O=C(O)C(F)(F)F [NCGC00248365-02] | -30% | YES | -1.4 | – | -26% | 17.8 µM | -24% | 4 | – | – | – | – | – | – | – | – | Confirm? (counterscreen) ([2]; counterscreen, YES/NO): YES |
| COC(=O)c1scc2c(O)cc(C(F)(F)F)nc12 [NCGC00168006-01] | – | – | – | – | – | – | – | – | -3 | -58% | -67% | 79.4 µM | -56% | -2.2 | 50.1 µM | -3 | Confirm? (confirmatory screen) [1, 15]: YES; IC50 [1, 18]: 70.8 µM |
| Cl.O=[N+]([O-])c1ccc(CNc2ccc(S(=O)(=O)Nc3nccs3)cc2)c(O)c1 [NCGC00273519-01] | -67% | YES | -2.4 | 12.6 µM | – | – | -48% | -2.2 | – | – | – | – | -24% | -1.4 | 7.9 µM | – | IC50 ([2]; counterscreen): 25.1 µM |
| CN(C)CCCn1cc(C2=C(c3c[nH]c4ccccc34)C(=O)NC2=O)c2ccccc21 [NCGC00024760-07] | -63% | YES | -2.2 | 44.7 µM | -53% | 39.8 µM | -54% | -2.2 | – | – | – | – | – | – | – | – | Curve Class [1, 6]: -2.2; IC50 ([2]; counterscreen): 35.5 µM |
| Cc1ccc(S(=O)(=O)Nc2cc3c(cc2C(=O)Nc2nc(-c4ccccc4)cs2)OCO3)cc1.O=C(O)C(F)(F)F [NCGC00263702-01] | – | – | – | – | – | – | – | – | 4 | -44% | 111% | 44.7 µM | -40% | – | 39.8 µM | – | Curve Class [1, 19]: -2.2 |
| CC[C@@H](c1ccc(F)c(F)c1)n1c(C(=O)OC)c(-c2ccno2)[nH]c1=S [NCGC00387465-01] | – | – | – | – | -79% | 79.4 µM | – | – | 4 | -22% | 0% | – | – | – | – | 4 | Curve Class [1, 6]: -2.2 |
| Cc1ccc2nc3sc(C(=O)NCc4ccco4)cc3cc2c1.O=C(O)C(F)(F)F [NCGC00183968-01] | -34% | YES | -1.2 | 15.8 µM | – | – | -27% | 4 | – | – | – | – | -24% | -1.4 | 7.1 µM | – | Confirm? (counterscreen) ([2]; counterscreen, YES/NO): YES |
| CN(C)c1cnc2c(O)cccc2c1.O=C(O)C(F)(F)F [NCGC00188745-01] | – | – | – | – | – | – | – | – | – | – | – | – | -53% | -2.2 | 44.7 µM | – | CONFIRMATORY SCREEN Efficacy (%) ([1]; confirmatory screen): -19%; CONFIRMATORY SCREEN Curve Class ([1]; confirmatory screen): 4; COUNTERSCREEN Efficacy (%) ([2]; counterscreen): -32%; COUNTERSCREEN Curve Class ([2]; counterscreen): 4 |
| Cc1nc(C(=O)NCC(=O)O)c(O)c2ccc(Oc3ccccc3)cc12 [NCGC00346527-01] | – | – | – | – | – | – | – | – | – | – | – | – | -24% | – | 38.5 µM | – | CONFIRMATORY SCREEN Efficacy (%) ([1]; confirmatory screen): -26%; CONFIRMATORY SCREEN Curve Class ([1]; confirmatory screen): 4; Curve Class [1, 19]: -2.4; COUNTERSCREEN Efficacy (%) ([2]; counterscreen): 0%; COUNTERSCREEN Curve Class ([2]; counterscreen): 4 |
| O=C(O)C(F)(F)F.O=C1Nc2ccccc2/C1=N/NC(=S)Nc1ccc(C(=O)O)cc1 [NCGC00229530-01] | – | – | – | – | -32% | 8.9 µM | – | – | 4 | -47% | -65% | 12.6 µM | – | – | – | -1.2 | Confirm? (counterscreen) [2, 17]: YES |
